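Where inhibition never reached the appropriate level, the endpoint shown equals the highest concentration tested. Otherwise, values were interpolated linearly from a five-concentration, 48-hour dose response in 96-well plates. GI50: concentration for 50% inhibition of growth.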 Active and inactive are the calls of the source. Cut-off read from the data, not from the text of the source: active = GI50 up to about 1.1 µM and inactive = higher.

Some test systems named below: A549; ACHN; CCRF-CEM; COLO 205; DU-145; HOP-92; Hs-578T; IGROV-1; KM12; LOX IMVI; MCF7; MDA-MB-435; MOLT-4; NCI-H226; NCI-H460; OVCAR-3; OVCAR-5; OVCAR-8; SK-MEL-5; U-251.
What all share (test): NCI-60 cell line screen, 48 h

Consider `CN(C)CCNc1ccc2c(=O)n(CCN(C)C)c(=O)n3c4ccc(O)cc4c(=O)c1c23`, for which the GI50 in the test with A549 was < 0.01 µM (active); with ACHN it was < 0.01 µM (active); with CCRF-CEM it was < 0.01 µM (active); in the test on COLO 205 it was 0.0327 µM (active); with DU-145 it was < 0.01 µM (active); with HOP-92 it was < 0.01 µM (active). For the same compound, the GI50 with Hs-578T is 0.161 µM (active); with IGROV-1, 0.0144 µM (active); in the test on KM12 it was 0.122 µM (active); with LOX IMVI, < 0.0105 µM (active); with MCF7, < 0.01 µM (active); in the test on MDA-MB-435 it was 0.0711 µM (active). Further, the GI50 with MOLT-4 was < 0.01 µM (active); in the test with NCI-H226 it was < 0.01 µM (active); in the test on NCI-H460, < 0.01 µM (active); in the test with OVCAR-3 it was 0.105 µM (active); in the test on OVCAR-5 it was 0.0775 µM (active); in the test with OVCAR-8, < 0.01 µM (active). Moreover, the results for the GI50 in the test on SK-MEL-5 and with U-251 were < 0.0115 µM (active) and < 0.0109 µM (active), respectively.

As for `CCN(CC)CCCn1c(=O)c2ccccc2n2c3c(=O)n(C)c(=O)n(C)c3nc12`, the GI50 was 0.959 µM (active) in the test with A549; 1.34 µM (inactive) in the test on ACHN; 3.03 µM (inactive) in the test with CCRF-CEM; 5.09 µM (inactive) in the test with COLO 205; 1.57 µM (inactive) with DU-145; 3.9 µM (inactive) in the test on HOP-92. Further, the GI50 with Hs-578T was 14 µM (inactive); in the test with IGROV-1 it was 6.58 µM (inactive); in the test with KM12 it was 4.63 µM (inactive); in the test with LOX IMVI, 3.03 µM (inactive); in the test on MCF7, 4.76 µM (inactive); in the test with MDA-MB-435, 14.2 µM (inactive). Besides, the GI50 in the test on MOLT-4 was 0.619 µM (active); with NCI-H226 it was 2.7 µM (inactive); in the test on NCI-H460 it was 0.355 µM (active); in the test on OVCAR-3, 14.4 µM (inactive); in the test with OVCAR-5, 12.1 µM (inactive); with OVCAR-8, 5.08 µM (inactive). Also, the GI50 in the test on SK-MEL-5 is 2.22 µM (inactive); with U-251, 3.03 µM (inactive).

Take `Cc1cccc2nc3cccc(C(=O)NCCC[N+](C)(CCCNC(=O)c4cccc5nc6cccc(C)c6nc45)Cc4c([N+](=O)[O-])ncn4C)c3nc12`: the GI50 was 0.189 µM (active) in the test on A549; 0.136 µM (active) with ACHN; 47 µM (inactive) in the test with CCRF-CEM; 0.705 µM (active) with COLO 205; 0.881 µM (active) in the test on DU-145; 23.9 µM (inactive) in the test on HOP-92. Besides, the GI50 in the test with Hs-578T was > 1100 µM (inactive); with IGROV-1, 11.1 µM (inactive); with KM12, 0.0912 µM (active); in the test on LOX IMVI, 0.0908 µM (active); in the test with MCF7, 0.436 µM (active); in the test on MDA-MB-435, 5.13 µM (inactive). Moreover, the GI50 in the test with MOLT-4 is 0.0396 µM (active); in the test on NCI-H226, 0.787 µM (active); in the test on NCI-H460, 0.0632 µM (active); in the test with OVCAR-3, 22 µM (inactive); with OVCAR-5, 1.91 µM (inactive); with OVCAR-8, 0.0859 µM (active). The figures for the GI50 with SK-MEL-5 and in the test with U-251 were 1.95 µM (inactive) and 0.377 µM (active), respectively.

For `CCOC(=O)/C=C(/C(=O)OCC)n1ccc(=O)n(Cc2cn(CCCCOC(C)=O)nn2)c1=O`, the GI50 in the test on A549 is > 100 µM (inactive); in the test on ACHN, 40.3 µM (inactive); in the test with CCRF-CEM, 16.2 µM (inactive); in the test on COLO 205, 31.8 µM (inactive); in the test with DU-145, > 100 µM (inactive); in the test with HOP-92, 6.65 µM (inactive). In addition, the GI50 in the test on Hs-578T is > 100 µM (inactive); in the test on IGROV-1, > 100 µM (inactive); in the test with KM12 it was > 100 µM (inactive); in the test with LOX IMVI, > 100 µM (inactive); with MCF7, 60.3 µM (inactive); with MDA-MB-435 it was > 100 µM (inactive). The GI50 was 50.2 µM (inactive) with MOLT-4; 32.9 µM (inactive) with NCI-H226; > 100 µM (inactive) in the test on NCI-H460; > 100 µM (inactive) in the test on OVCAR-3; > 100 µM (inactive) in the test with OVCAR-5; > 100 µM (inactive) in the test on OVCAR-8. The GI50 in the test on SK-MEL-5 and in the test on U-251 was > 100 µM (inactive) throughout.

For the compound `Cc1ccccc1NC(=O)C(=O)Cc1cnc2ccccc2n1`, the GI50 in the test on A549 is > 100 µM (inactive); in the test on ACHN it was > 100 µM (inactive); with CCRF-CEM it was 69.8 µM (inactive); in the test with COLO 205, > 100 µM (inactive); in the test on DU-145, > 100 µM (inactive); in the test with HOP-92 it was > 100 µM (inactive). In addition, the GI50 in the test with Hs-578T, in the test on IGROV-1, in the test with KM12, in the test with LOX IMVI, in the test with MCF7 and in the test with MDA-MB-435 was > 100 µM (inactive) in each case. Also, the GI50 in the test on MOLT-4, in the test with NCI-H226, in the test with NCI-H460, in the test with OVCAR-3, in the test with OVCAR-5 and with OVCAR-8 was > 100 µM (inactive) each time. In addition, the GI50 in the test with SK-MEL-5 and in the test on U-251 was > 100 µM (inactive) in each case.

For the compound `COc1cc(CNc2nc3ccccc3nc2C(=O)O)cc(OC)c1OC`, the GI50 with A549 was > 100 µM (inactive); in the test with ACHN, > 100 µM (inactive); in the test with CCRF-CEM it was > 100 µM (inactive); with COLO 205, > 100 µM (inactive); in the test on DU-145, > 100 µM (inactive); in the test on HOP-92 it was 65 µM (inactive). For the same compound, the GI50 with Hs-578T is 42.1 µM (inactive); in the test with IGROV-1, > 100 µM (inactive); in the test with KM12, > 100 µM (inactive); with LOX IMVI, > 100 µM (inactive); in the test with MCF7 it was 81.1 µM (inactive); with MDA-MB-435, > 100 µM (inactive). Also, the GI50 with MOLT-4 was > 100 µM (inactive); in the test on NCI-H226, > 100 µM (inactive); with NCI-H460, 94 µM (inactive); in the test with OVCAR-3 it was > 100 µM (inactive); with OVCAR-5, > 100 µM (inactive); in the test with OVCAR-8 it was > 100 µM (inactive). Further, the figures for the GI50 with SK-MEL-5 and in the test on U-251 were 98.4 µM (inactive) and > 100 µM (inactive), respectively.

As for `COc1ccc(NC(=O)CC(=O)n2nc(C)c(/N=N/c3cccc(C)c3)c2C)cc1`, the GI50 with A549 was > 100 µM (inactive); in the test on ACHN, > 100 µM (inactive); in the test with CCRF-CEM it was > 100 µM (inactive); in the test with COLO 205, > 100 µM (inactive); in the test with DU-145 it was > 100 µM (inactive); in the test with HOP-92, 69.8 µM (inactive). Also, the GI50 with Hs-578T, in the test with KM12, with LOX IMVI, in the test on MCF7, in the test on MDA-MB-435 and with MOLT-4 was > 100 µM (inactive) throughout. In addition, the GI50 with NCI-H226, in the test with NCI-H460, with OVCAR-3, with OVCAR-5, in the test with OVCAR-8 and in the test on SK-MEL-5 was > 100 µM (inactive) in each case. Moreover, in the test with U-251, the GI50 is 54.1 µM (inactive).

`COc1cccc2c1C(=O)c1c(O)c3c(c(O)c1C2=O)C[C@@](O)(C(C)=O)CC3OC1CC(OC2CC(N)C(O)C(C)O2)C(O)C(C)O1` (stereo partly drawn): the GI50 is 52.5 µM (inactive) in the test on A549; 38.7 µM (inactive) in the test with ACHN; 10.5 µM (inactive) in the test on CCRF-CEM; 74.6 µM (inactive) in the test with COLO 205; 49.1 µM (inactive) in the test with DU-145; 31.3 µM (inactive) in the test on HOP-92. In addition, the GI50 in the test with Hs-578T is > 48.4 µM (inactive); with IGROV-1, 31.4 µM (inactive); with KM12, 35.8 µM (inactive); in the test with LOX IMVI, 18.4 µM (inactive); in the test with MCF7, 7.66 µM (inactive); in the test on MDA-MB-435 it was 56.2 µM (inactive). Also, the GI50 with MOLT-4 is 2.58 µM (inactive); with NCI-H226, 51.1 µM (inactive); with NCI-H460, 14.6 µM (inactive); with OVCAR-3 it was 31 µM (inactive); with OVCAR-5, > 61.2 µM (inactive); with OVCAR-8 it was 57.9 µM (inactive). Also, the GI50 in the test with SK-MEL-5 is 35.7 µM (inactive); in the test with U-251 it was 23.9 µM (inactive).

`O=Cc1cc2c(o1)C(=O)c1ccccc1C2=O`: the GI50 with A549 is 1.32 µM (inactive); in the test with ACHN, 1.98 µM (inactive); with CCRF-CEM, 2.09 µM (inactive); in the test on COLO 205 it was 1.44 µM (inactive); in the test with DU-145, 0.212 µM (active); in the test with HOP-92, 1.83 µM (inactive). The GI50 in the test on Hs-578T was 0.251 µM (active); in the test with IGROV-1 it was 1.33 µM (inactive); in the test on KM12, 1.07 µM (active); with LOX IMVI, 0.267 µM (active); in the test with MCF7, 0.213 µM (active); with MDA-MB-435 it was 0.197 µM (active). Besides, the GI50 was 2.06 µM (inactive) with MOLT-4; 1.07 µM (active) in the test with NCI-H226; 0.794 µM (active) in the test with NCI-H460; 0.358 µM (active) with OVCAR-3; 1.77 µM (inactive) in the test on OVCAR-5; 1.26 µM (inactive) in the test with OVCAR-8. Besides, the GI50 was 0.233 µM (active) in the test on SK-MEL-5 and 0.851 µM (active) in the test on U-251.

`O=C1Cc2c([nH]c3ccc(C(=O)O)cc23)-c2ccccc2N1`: the GI50 with A549, with ACHN, in the test on CCRF-CEM, in the test on COLO 205, with DU-145 and in the test on HOP-92 was > 100 µM (inactive) each time. The GI50 with Hs-578T, with IGROV-1, in the test with KM12, with LOX IMVI, in the test on MCF7 and with MDA-MB-435 was > 100 µM (inactive) each time. The GI50 with MOLT-4 is > 100 µM (inactive); in the test on NCI-H226 it was > 100 µM (inactive); in the test on NCI-H460 it was > 100 µM (inactive); with OVCAR-3, > 100 µM (inactive); in the test with OVCAR-5, 6.79 µM (inactive); in the test with OVCAR-8, > 100 µM (inactive). The GI50 in the test with U-251 is > 100 µM (inactive).

(Values after ChEMBL document CHEMBL1201862, “PubChem BioAssay data set” (2004).)
